30 molecules from patent US6479531B1, “Gastrin and cholecystokinin receptor ligands” (James Black Foundation Limited, priority 1998, dated 2002) can be followed below.

The target in the first assay is T1, CCKB receptor (Mus musculus, UniProt P56481).
T1 construct: The whole brains from male mice (CD1 22-25 g; Charles River) were removed; from tissue; host or cells: cerebral cortex membranes of male CD1 mice
T1 sequence (P56481 1-453): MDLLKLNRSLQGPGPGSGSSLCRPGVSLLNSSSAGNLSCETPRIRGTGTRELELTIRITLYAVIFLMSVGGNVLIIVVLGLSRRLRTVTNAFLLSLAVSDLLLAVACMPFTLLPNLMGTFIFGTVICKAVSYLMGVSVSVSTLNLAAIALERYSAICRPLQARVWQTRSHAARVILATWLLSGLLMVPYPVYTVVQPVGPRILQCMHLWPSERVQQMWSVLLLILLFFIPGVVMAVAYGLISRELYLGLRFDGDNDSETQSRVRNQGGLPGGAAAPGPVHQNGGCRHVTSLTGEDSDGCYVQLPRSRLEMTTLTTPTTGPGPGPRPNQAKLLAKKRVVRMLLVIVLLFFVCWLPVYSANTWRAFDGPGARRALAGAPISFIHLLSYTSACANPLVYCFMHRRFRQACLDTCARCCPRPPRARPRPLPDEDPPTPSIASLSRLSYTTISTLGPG
The assay is described as follows: CCKB receptor radioligand binding assay in mouse cortical membranes. To be noted: [125I]-CCK8(S) 200 pM, 150 min at 21±3°. The protocol:
The compounds of the examples were tested for binding at the CCKB receptor in mouse cortical membranes by means of a radioligand binding assay. The procedure was as follows:
The whole brains from male mice (CD1 22-25 g; Charles River) were removed and placed in ice-cold buffer (pH 7.2 @ 21±3°) of the following composition (mM); 10 HEPES, 130 NaCl, 4.7 KCl, 5 MgCl2, 1 EDTA and containing 0.25 gl^−1 bacitracin. The cortex was dissected, weighed and homogenised in 40 ml ice-cold buffer using a Teflon-in-glass homogeniser. The homogenate was centrifuged at 39800 g for 20 min […], the supernatant discarded and the pellet resuspended by homogenisation in fresh buffer. The homogenate was recentrifuged (39800 g, 20 min @ 4°) and the final pellet was resuspended in HEPES buffer to give a tissue concentration of 20 mg ml^−1 (original wet weight).
The assay was terminated by rapid filtration through pre-soaked Whatman GF/B filters using a Brandell Cell Harvester. The filters were washed (3×3 ml) with ice-cold 50 mM Tris-HCl (pH 7.4 @ 4° C.) and bound radioactivity determined by counting (1 min) in a gamma-counter.
As for “3-{[5-(2-Methyl-butyl)-2-o-tolyl-1H-imidazole-4-carbonyl]-amino}-benzoic Acid [Example 90]”, the “CCKB pKi” value was 5.16.
The same measure, in the same setting: in the case of “5-[(2-Adamantan-1-ylmethyl-5-phenyl-1H-pyrrole-3-carbonyl)-amino-methyl]-isophthalic Acid [Example 9]” it was 5.88.

Still in this assay, the particulars now being: [125I]-CCK8(S) 200 pM, 150 min at 21±3°, read-out: CCKB pKi (converted).
For the molecule `CN(C)c1ccc(-c2nc(C(=O)Nc3cc(C(=O)O)cc(C(=O)O)c3)c(CC3CCCCCC3)[nH]2)cc1` [Example 31, 5-[(5-Cycloheptylmethyl-2-(4-dimethylamino-phenyl)-1H-imidazole-4-carbonyl)-amino]-isophthalic Acid], the Ki was 1660 nM.
Consider `Cc1cc(NC(=O)c2nc(-c3ccccc3C)[nH]c2CCC23CC4CC(CC(C4)C2)C3)cc(C(=O)O)c1` [Example 247, 3-{[5-(2-Adamantan-1-yl-ethyl)-2-o-tolyl-1H-imidazole-4-carbonyl]-amino}-5-methyl-benzoic Acid], for which the Ki is 302 nM.
For `Cc1ccccc1-c1nc(CCc2cccc(C(=O)O)c2)c(C(=O)NCC23CC4CC(CC(C4)C2)C3)[nH]1` [Example 119, 3-{2-[5-(Adamantan-1-ylmethylcarbamoyl)-2-o-tolyl-1H-imidazol-4-yl]-ethyl}-benzoic Acid], the Ki was 282 nM.
For `Cc1ccccc1-c1nc(CCc2cccc(C(=O)O)c2)c(C(=O)NC23CC4CC(CC(C4)C2)C3)[nH]1` [Example 118, 3-{2-[5(Adamantan-1-ylcarbamoyl)-2-o-tolyl-1H-imidazole-4-yl]-ethyl}-benzoic Acid], the Ki is 776 nM.
For the molecule `Cc1ccccc1-c1nc(C(=O)Nc2cc(C(=O)O)ccc2Cl)c(CCC23CC4CC(CC(C4)C2)C3)[nH]1` [Example 237, 3-{[5-(2-Adamantan-1-yl-ethyl)-2-o-tolyl-1H-imidazole-4-carbonyl]-amino}-4-chloro-benzoic Acid], the Ki is 7590 nM.
Take `O=C(O)c1cc(NC(=O)c2nc[nH]c2CC2CCCCCC2)cc(C(=O)O)c1` [Example 35, 5-[(5-Cycloheptylmethyl-1H-imidazole-4-carbonyl)-amino]-isophthalic Acid]: the Ki was 3890 nM.
The same measure, in the same setting: in the case of `O=C(O)c1cccc(NC(=O)c2cc(-c3ccccc3)[nH]c2CCC23CC4CC(CC(C4)C2)C3)c1` [Example 19, 3-{[2-(2-Adamantan-1-yl-ethyl)-5-phenyl-1H-pyrrole-3-carbonyl]-amino}-benzoic Acid] it was 447 nM.
Still for that read-out and setting: under `COc1ccc(NC(=O)c2nc(-c3ccccc3C)[nH]c2CCC23CC4CC(CC(C4)C2)C3)cc1C(=O)O` [Example 244, 5-{[5-(2-Adamantan-1-yl-ethyl)-2-o-tolyl-1H-imidazole-4-carbonyl]-amino}-2-methoxy-benzoic Acid] stands 182 nM.
Turning to `O=C(O)c1cc(NC(=O)c2nc(-c3cccnc3)[nH]c2CC2CCCCCC2)cc(C(=O)O)c1` [Example 32, 5-[(5-Cycloheptylmethyl-2-pyridin-3-yl-1H-imidazole-4-carbonyl)-amino]-isophthalic Acid], the Ki is 4790 nM.
On the same count and under the same terms, under `Cc1ccccc1-c1nc(C(=O)Nc2cccc(C(=O)O)c2)c(CCC(C)(C)C)[nH]1` [Example 91, 3-{[5-(3,3-Dimethyl-butyl)-2-o-tolyl-1H-imidazole-4-carbonyl]-amino}-benzoic Acid] stands 3800 nM.
Regarding `COc1ccc(-c2nc(C(=O)Nc3cc(C(=O)O)cc(C(=O)O)c3)c(CC3CCCCCC3)[nH]2)cc1` [Example 29, 5-[(5-Cycloheptylmethyl-2-(4-methoxy-phenyl)-1H-imidazole-4-carbonyl)-amino]-isophthalic Acid], the Ki is 1480 nM.
Regarding `Cc1ccccc1-c1nc(C(=O)Nc2cccc(C(=O)O)c2)c(CCC23CC4CC(CC(C4)C2)C3)o1` [Example 120, 3-{[5-(2-Adamanatan-1-yl-ethyl)-2-o-tolyl-oxazole-4-carbonyl]-amino}-benzoic Acid], the Ki was 1550 nM.
With `O=C(O)c1cc(NC(=O)c2nc(-c3ccccc3C(F)(F)F)[nH]c2CCC2CCCCCC2)cc(C(=O)O)c1` [Example 41, 5-{[5-(2-Cycloheptyl-ethyl)-2-(2-trifluoromethyl-phenyl)-1H-imidazole-4-carbonyl]-amino}-isophthalic Acid], the Ki was 4370 nM.
For `Cc1ccc(NC(=O)c2c(CCC34CC5CC(CC(C5)C3)C4)nc(-c3ccccc3C)n2C)cc1C(=O)O` [Example 162, 5-{[5-(2-Adamantan-1-yl-ethyl)-3-methyl-2-o-tolyl-3H-imidazole-4-carbonyl]-amino}-2-methyl-benzoic Acid], the Ki is 1660 nM.
Still for that read-out and setting: under `Cc1ccccc1-c1nc(C(=O)N2CCC[C@H]2C(=O)O)c(CCC23CC4CC(CC(C4)C2)C3)[nH]1` [Example 95, (2S)-1-[5-(2-Adamantan-1-yl-ethyl)-2-o-tolyl-1H-imidazole-4-carbonyl]-pyrrolidine-carboxylic Acid] stands 2510 nM; under `O=C(Nc1cc(-c2nnn[nH]2)cc(-c2nnn[nH]2)c1)c1cc(-c2ccccc2)[nH]c1CC12CC3CC(CC(C3)C1)C2` [Example 2, 2-Adamantan-1-ylmethyl-5-phenyl-1H-pyrrole-3-carboxylic Acid [3,5-bis-(1H-tetrazol-5-yl)-phenyl]-amide], 49 nM.
On the same count and under the same terms, in the case of `O=C(O)c1cccc(NC(=O)c2cc(-c3ccc4ccccc4c3)[nH]c2CC2CCCCCC2)c1` [Example 14, 3-[(2-Cycloheptylmethyl-5-naphthalen-2-yl-1H-pyrrole-3-carbonyl)-amino]-benzoic Acid] it was 1320 nM; in that of `O=C(O)c1cccc(NC(=O)c2nc(-c3ccccc3O)[nH]c2CCC23CC4CC(CC(C4)C2)C3)c1` [Example 64, 3-{[5-(2-Adamantan-1-yl-ethyl)-2-(2-hydroxy-phenyl)-1H-imidazole-4-carbonyl]-amino}-benzoic Acid], 1380 nM; in that of `O=C(Nc1cccc(-c2nnn[nH]2)c1)c1nc(-c2ccccc2)[nH]c1CCC12CC3CC(CC(C3)C1)C2` [Example 49], 182 nM.
Consider `O=C(O)c1cccc(NC(=O)c2nc(-c3ccncc3)[nH]c2CCC23CC4CC(CC(C4)C2)C3)c1` [Example 180, 3-{[5-(2-Adamantan-1-yl-ethyl)-2-pyridine-4-yl-1H-imidazole-4-carbonyl]-amino}-benzoic Acid], for which the Ki was 1860 nM.
As for `Cc1ccccc1-c1nc(C(=O)Nc2ccc(C)c(C(=O)O)c2C)c(CCC23CC4CC(CC(C4)C2)C3)[nH]1` [Example 240, 3-{[5-(2-Adamantan-1-yl-ethyl)-2-o-tolyl-1H-imidazole-4-carbonyl]-amino}-2,6-dimethyl-benzoic Acid], the Ki was 26.3 nM.
The same measure, in the same setting: in the case of `O=C(O)CCNC(=O)c1cc(-c2ccccc2)[nH]c1CC12CC3CC(CC(C3)C1)C2` [Example 10, 3-[(2-Adamantan-1-ylmethyl-5-phenyl-1H-pyrrole-3-carbonyl)-amino]-propionic Acid] it was 3020 nM; in that of `Cn1c(-c2ccccc2)cc(C(=O)Nc2cc(C(=O)O)cc(C(=O)O)c2)c1CC12CC3CC(CC(C3)C1)C2` [Example 8, 5-[(2-Adamantan-1-ylmethyl-1-methyl-5-phenyl-1H-pyrrole-3-carbonyl)-amino]-isophthalic Acid], 1020 nM.
For `Cc1ccccc1-c1nc(C(=O)Nc2cccc(C(=O)O)c2)c(CCC23CC4CC(CC(C4)C2)C3)s1` [Example 121, 3-{[5-(2-Adamanatan-1-yl-ethyl)-2-o-tolyl-thiazole-4-carbonyl]-amino}-benzoic Acid], the Ki was 2400 nM.
Same read-out and setting: in the case of `O=C(O)c1cc(NC(=O)c2cc(-c3ccccc3)[nH]c2CCC23CC4CC(CC(C4)C2)C3)cc(C(=O)O)c1` [Example 17, 5-{[2-(2-Adamantan-1-yl-ethyl)-5-phenyl-1H-pyrrole-3-carbonyl]-amino}-isophthalic Acid] it was 209 nM; in that of `Cc1ccccc1-c1nc(C(=O)NC(C(=O)O)c2ccccc2)c(CCC23CC4CC(CC(C4)C2)C3)[nH]1` (stereo not drawn) [Example 102, {[5-(2-Adamantan-1-yl-ethyl)-2-o-tolyl-1H-imidazole-4-carbonyl]-amino}-phenyl-acetic Acid], 776 nM.
On to `Cc1ccccc1-c1nc(C(=O)Nc2cccc(S(=O)(=O)NC(=O)c3ccccc3)c2)c(CCC23CC4CC(CC(C4)C2)C3)[nH]1` [Example 100, 5-(2-Adamantan-1-yl-ethyl)-2-o-tolyl-1H-imidazole-4-carboxylic Acid (3-benzoylsulfamoyl-phenyl)-amide], for which the Ki is 117 nM.
On the same count and under the same terms, under `COc1cccc(-c2nc(C(=O)Nc3cc(C(=O)O)cc(C(=O)O)c3)c(CC3CCCCCC3)[nH]2)c1` [Example 28, 5-[(5-Cycloheptylmethyl-2-(3-methoxy-phenyl)-1H-imidazole-4-carbonyl)-amino]-isophthalic Acid] stands 1230 nM.
